Measurements reported in patent publication US20260132129A1 (Genesis Therapeutics, Inc., priority 2022, published 2026).

Target: T1, PI3Kα H1047R (T47D cells) (Homo sapiens, UniProt P42336, H1047R)
T1 construct: endogenous in cells; host or cells: T47D cells
Assay: PI3Kα cellular assay: pAKT HTRF in T47D cells after EGF stimulation
Assay type: cell-based
Conditions: for IC50: T47D cells (PI3Kα H1047R), pAKT S473 HTRF
Protocol: SKBR3 or T47D cells are seeded in DMEM containing 10% FBS at 25k cells/well into 96-well cell culture format. Cells are incubated overnight at 37° C. in a 5% CO2 incubator and the following day cell media is aspirated, adherent cells are washed 1× with room temperature PBS prior to serum-free media application. Cells are returned to 37° C. 5% CO2 incubator and incubated a further 16 hrs. Compounds are added to serum starved adherent cells with a top dose of 10,000 nM and 3× multiple dose reductions for a minimum dose of 0.5 nM diluted in DMSO. Cell/compound incubation continues for 1 hr in a 37° C., 5% CO2 incubator prior to 10 minute PIK3CA stimulation with 20 ng/ml EGF. Cells treated with 0.1% DMSO and 20 ng/mL EGF are employed as negative control, cells treated with 10 uM Alpelisib and 20 ng/mL EGF are employed as a positive control. After 10 mins, plates are removed from incubator and cells are lysed with buffer and shaking 45 minutes. […] 384 well plate is left overnight at room temperature before reading HTRF on an Envision plate reader.
ND denotes value not determined with that assay for the specified compound; • for T47D (H1047R) selectivity over SKBR3 (WT): A denotes >20-fold; B denotes 20-fold≥value>5-fold; C denotes ≤5-fold. ND denotes value not determined with that assay for the specified compound; and • for T47D pAKT lipophilic efficiency (LiPE): A denotes >4; B denotes 4≥value>2; C denotes ≤2. ND denotes value not determined with that assay for the specified compound.

[1] = selectivity T47D (H1047R) over SKBR3 (WT), pAKT HTRF
[2] = 1 hr compound, 20 ng/ml EGF 10 min
[3] = selectivity of T47D (H1047R) over SKBR3 (WT) pAKT IC50

T1 sequence (P42336 whole entry H1047R): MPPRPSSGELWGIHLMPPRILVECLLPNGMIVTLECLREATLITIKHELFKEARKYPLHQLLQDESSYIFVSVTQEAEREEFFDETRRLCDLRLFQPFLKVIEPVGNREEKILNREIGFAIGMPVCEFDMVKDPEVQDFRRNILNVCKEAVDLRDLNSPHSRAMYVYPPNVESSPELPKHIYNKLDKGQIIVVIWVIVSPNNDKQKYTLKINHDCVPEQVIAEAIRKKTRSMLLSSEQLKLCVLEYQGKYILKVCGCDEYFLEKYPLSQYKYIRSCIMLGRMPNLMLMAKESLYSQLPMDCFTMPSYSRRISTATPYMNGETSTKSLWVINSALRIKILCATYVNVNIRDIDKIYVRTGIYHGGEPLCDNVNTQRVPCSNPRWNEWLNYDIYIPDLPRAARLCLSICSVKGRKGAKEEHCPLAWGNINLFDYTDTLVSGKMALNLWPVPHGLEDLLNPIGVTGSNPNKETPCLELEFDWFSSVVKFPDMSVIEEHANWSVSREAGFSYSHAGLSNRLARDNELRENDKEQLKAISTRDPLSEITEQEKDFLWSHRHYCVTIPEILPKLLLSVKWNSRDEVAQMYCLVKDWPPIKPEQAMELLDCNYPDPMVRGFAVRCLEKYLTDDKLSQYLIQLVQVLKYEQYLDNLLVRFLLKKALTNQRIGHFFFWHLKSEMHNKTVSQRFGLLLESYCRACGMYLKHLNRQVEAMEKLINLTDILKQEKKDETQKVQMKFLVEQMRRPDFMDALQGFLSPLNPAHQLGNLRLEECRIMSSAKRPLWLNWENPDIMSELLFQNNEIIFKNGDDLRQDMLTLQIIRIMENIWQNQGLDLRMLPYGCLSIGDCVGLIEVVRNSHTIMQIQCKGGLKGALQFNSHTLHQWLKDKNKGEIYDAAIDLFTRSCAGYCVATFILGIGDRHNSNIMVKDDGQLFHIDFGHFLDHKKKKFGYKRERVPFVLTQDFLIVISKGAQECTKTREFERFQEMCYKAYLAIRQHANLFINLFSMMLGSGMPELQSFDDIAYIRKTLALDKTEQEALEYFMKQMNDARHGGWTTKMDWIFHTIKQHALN
T1 sequence (P27986 whole entry partner): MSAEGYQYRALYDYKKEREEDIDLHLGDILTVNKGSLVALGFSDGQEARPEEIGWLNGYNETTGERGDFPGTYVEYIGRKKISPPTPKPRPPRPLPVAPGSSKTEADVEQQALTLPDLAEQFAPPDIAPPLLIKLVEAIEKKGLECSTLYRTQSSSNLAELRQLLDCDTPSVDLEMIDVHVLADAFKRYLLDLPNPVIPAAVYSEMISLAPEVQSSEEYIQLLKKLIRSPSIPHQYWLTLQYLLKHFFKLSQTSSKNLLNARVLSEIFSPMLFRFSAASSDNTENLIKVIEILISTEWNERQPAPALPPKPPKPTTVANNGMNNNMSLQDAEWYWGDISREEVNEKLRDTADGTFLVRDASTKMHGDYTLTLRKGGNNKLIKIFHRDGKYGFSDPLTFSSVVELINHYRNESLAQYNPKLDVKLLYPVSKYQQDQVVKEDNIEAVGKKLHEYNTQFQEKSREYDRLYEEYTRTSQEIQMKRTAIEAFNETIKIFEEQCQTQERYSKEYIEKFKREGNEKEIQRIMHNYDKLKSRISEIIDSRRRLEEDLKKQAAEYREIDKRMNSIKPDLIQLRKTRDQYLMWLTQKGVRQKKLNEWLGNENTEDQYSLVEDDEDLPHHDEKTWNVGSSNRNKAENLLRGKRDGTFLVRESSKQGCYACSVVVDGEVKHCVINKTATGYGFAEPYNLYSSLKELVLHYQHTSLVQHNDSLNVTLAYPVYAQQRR

With `Cc1cc([C@@H](C)Nc2ccccc2S(N)(=O)=O)c2nc(-c3cccnc3)c(C)c(=O)n2c1` [Compound 1107] the IC50 (EGF stimulation) was less than 100 nM and the “T47D pAKT S473 HTRF IC50 (H1047R): T47D (H1047R) selectivity over SKBR3 (WT)” value [1] was “A (A denotes >20-fold)”.
With `Cc1cc(C(C)Nc2ccccc2C(=O)O)c2nc(OC3CCCOC3)c(C)c(=O)n2c1` (centres unmarked) [Compound 1254] the IC50 (EGF stimulation) was 100 to 500 nM and the “T47D pAKT S473 HTRF IC50 (H1047R): T47D (H1047R) selectivity over SKBR3 (WT)” value [1] was “A (A denotes >20-fold)”.
In the case of `Cc1cc([C@@H](C)Nc2ccccc2C(N)=O)c2nc(N3Cc4ccccc4C3)cc(=O)n2c1` (single isomer, unassigned) [Compound 620], the IC50 [2] is reported as less than 100 nM and the “T47D pAKT S473 HTRF IC50 (H1047R): T47D (H1047R) selectivity over SKBR3 (WT)” value [1] is reported as “A (A denotes >20-fold)”.
In the case of `Cc1cc(C(C)Nc2ccccc2C(=O)O)c2nc(-c3ccc4c(c3)c(C)nn4C)cc(=O)n2c1` (centres unmarked) [Compound 725], the IC50 (EGF stimulation) is reported as less than 100 nM and the “T47D pAKT S473 HTRF IC50 (H1047R): T47D (H1047R) selectivity over SKBR3 (WT)” value [3] is reported as “A (A denotes >20-fold)”.
`Cc1cc(C(C)Nc2cccc3onc(O)c23)c2nc(-c3cccnc3)c(C)c(=O)n2c1` (centres unmarked) [Compound 1365, 9-(1-((3-hydroxybenzo[d]isoxazol-4-yl)amino)ethyl)-3,7-dimethyl-2-(pyridin-3-yl)-4H-pyrido[1,2-a]pyrimidin-4-one] was tested, and the IC50 (EGF stimulation) was 100 to 500 nM and the “T47D pAKT S473 HTRF IC50 (H1047R): T47D (H1047R) selectivity over SKBR3 (WT)” value [1] was “A (A denotes >20-fold)”.
`Cc1cc([C@H](C)Nc2ccccc2C(=O)O)c2nc(-c3ccc4c(ccn4CC(N)=O)c3)cc(=O)n2c1` [Compound 741] was tested, and the “T47D pAKT S473 HTRF IC50 (H1047R): T47D (H1047R) selectivity over SKBR3 (WT)” value [3] was “C (C denotes ≤5-fold)”.
With `Cc1cc(C(C)Nc2ccccc2C(=O)O)c2nc(N3CCC(C)(O)CC3)cc(=O)n2c1` (centres unmarked) [Compound 473] the IC50 [2] was greater than 2000 nM and the “T47D pAKT S473 HTRF IC50 (H1047R): T47D (H1047R) selectivity over SKBR3 (WT)” value [1] was “C (C denotes ≤5-fold)”.
For `Cc1cc(C(C)Nc2ccccc2C(=O)O)c2nc(N3CCN(C(=O)CN)CC3)cc(=O)n2c1` (centres unmarked) [Compound 527], the IC50 [2] was greater than 2000 nM and the “T47D pAKT S473 HTRF IC50 (H1047R): T47D (H1047R) selectivity over SKBR3 (WT)” value [1] was “C (C denotes ≤5-fold)”.
With `Cc1cc(C(C)Nc2ccccc2C(=O)O)c2nc(-c3ccc(C(C)C)nc3)c(C)c(=O)n2c1` (centres unmarked) [Compound 1178] the IC50 (EGF stimulation) was less than 100 nM and the “T47D pAKT S473 HTRF IC50 (H1047R): T47D (H1047R) selectivity over SKBR3 (WT)” value [1] was “A (A denotes >20-fold)”.
In the case of `Cc1cc([C@H](C)Nc2ccccc2C(=O)O)c2nc([C@H]3CCOC3)cc(=O)n2c1` [Compound 539], the IC50 [2] is reported as 500 to 2000 nM and the “T47D pAKT S473 HTRF IC50 (H1047R): T47D (H1047R) selectivity over SKBR3 (WT)” value [1] is reported as “B (B denotes 20-fold≥value>5-fold)”.
For `Cc1cc(C(C)Nc2ccccc2C(=O)O)c2nc(-c3ccc4[nH]cnc4c3)cc(=O)n2c1` (centres unmarked) [Compound 515], the IC50 [2] was 500 to 2000 nM and the “T47D pAKT S473 HTRF IC50 (H1047R): T47D (H1047R) selectivity over SKBR3 (WT)” value [1] was “B (B denotes 20-fold≥value>5-fold)”.
With `Cc1cc([C@H](C)Nc2ccccc2-c2ccnnc2)c2nc(N3Cc4ccccc4C3)c(C)c(=O)n2c1` (single isomer, unassigned) [Compound 848] the IC50 (EGF stimulation) was less than 100 nM and the “T47D pAKT S473 HTRF IC50 (H1047R): T47D (H1047R) selectivity over SKBR3 (WT)” value [3] was “A (A denotes >20-fold)”.
In the case of `Cc1cc(C(C)Nc2ccccc2C(N)=O)c2nc(-c3ccncc3)cc(=O)n2c1` (centres unmarked) [Compound 438], the IC50 [2] is reported as greater than 2000 nM and the “T47D pAKT S473 HTRF IC50 (H1047R): T47D (H1047R) selectivity over SKBR3 (WT)” value [1] is reported as “C (C denotes ≤5-fold)”.
For `Cc1cc(C(C)Nc2ccccc2S(N)(=O)=O)c2nc(N3CCOCC3)cc(=O)n2c1` (centres unmarked) [Compound 151], the “T47D pAKT S473 HTRF IC50 (H1047R): T47D (H1047R) selectivity over SKBR3 (WT)” value [1] was “C (C denotes ≤5-fold)”.
`Cc1cc([C@@H](C)Nc2ccccc2C(=O)O)c2nc(-c3ccc4c(C)cn(C)c4c3)c(C)c(=O)n2c1` [Compound 984] was tested, and the IC50 (EGF stimulation) was less than 100 nM and the “T47D pAKT S473 HTRF IC50 (H1047R): T47D (H1047R) selectivity over SKBR3 (WT)” value [3] was “A (A denotes >20-fold)”.
`Cc1cc(C(C)Nc2ccccc2C(=O)O)c2nc(-c3cc(C)c4oc(=O)[nH]c4c3)cc(=O)n2c1` (centres unmarked) [Compound 1413, 2-((1-(7-methyl-2-(7-methyl-2-oxo-2,3-dihydrobenzo[d]oxazol-5-yl)-4-oxo-4H-pyrido[1,2-a]pyrimidin-9-yl)ethyl)amino)benzoic acid] was tested, and the IC50 (EGF stimulation) was 100 to 500 nM and the “T47D pAKT S473 HTRF IC50 (H1047R): T47D (H1047R) selectivity over SKBR3 (WT)” value [1] was “A (A denotes >20-fold)”.
`Cc1cc([C@@H](C)Nc2ccccc2C(=O)O)c2nc(-c3ccc4c(c3)c(C)cn4C)cc(=O)n2c1` [Compound 797] was tested, and the IC50 (EGF stimulation) was greater than 2000 nM and the “T47D pAKT S473 HTRF IC50 (H1047R): T47D (H1047R) selectivity over SKBR3 (WT)” value [3] was “C (C denotes ≤5-fold)”.
With `Cc1cc([C@@H](C)Nc2ccccc2S(N)(=O)=O)c2nc(N3Cc4ccccc4C3)c(C)c(=O)n2c1` (single isomer, unassigned) [Compound 856] the IC50 (EGF stimulation) was less than 100 nM and the “T47D pAKT S473 HTRF IC50 (H1047R): T47D (H1047R) selectivity over SKBR3 (WT)” value [3] was “A (A denotes >20-fold)”.
`Cc1cc([C@H](C)Nc2ccccc2C(N)=O)c2nc(-c3cnc(C)c(Cl)c3)c(C)c(=O)n2c1` [Compound 1136] was tested, and the IC50 (EGF stimulation) was greater than 2000 nM and the “T47D pAKT S473 HTRF IC50 (H1047R): T47D (H1047R) selectivity over SKBR3 (WT)” value [1] was “C (C denotes ≤5-fold)”.
For `Cc1cc([C@@H](C)Nc2ccccc2C(=O)O)c2cc(-c3ccncn3)cc(=O)n2c1` [Compound 481], the IC50 [2] was greater than 2000 nM and the “T47D pAKT S473 HTRF IC50 (H1047R): T47D (H1047R) selectivity over SKBR3 (WT)” value [1] was “C (C denotes ≤5-fold)”.
